biological target: T1, human B1R receptor (CHO K1 cells stably transfected with the human B1R gene) (Homo sapiens, UniProt P46663); assay: Functional study on the bradykinin receptor 1 (B1R), Ca2+ fluorescence (Fluo-4) FLIPR/Novostar assay, hB1R cells; assay type: cell-based; details: CHO-K1, read-out: % Inhibition (h-B1R) at 10 μM
T1 construct: expressed in transfected cells; host or cells: CHO K1 cells (Chinese hamster ovary), stably transfected
T1 sequence (P46663 1-353): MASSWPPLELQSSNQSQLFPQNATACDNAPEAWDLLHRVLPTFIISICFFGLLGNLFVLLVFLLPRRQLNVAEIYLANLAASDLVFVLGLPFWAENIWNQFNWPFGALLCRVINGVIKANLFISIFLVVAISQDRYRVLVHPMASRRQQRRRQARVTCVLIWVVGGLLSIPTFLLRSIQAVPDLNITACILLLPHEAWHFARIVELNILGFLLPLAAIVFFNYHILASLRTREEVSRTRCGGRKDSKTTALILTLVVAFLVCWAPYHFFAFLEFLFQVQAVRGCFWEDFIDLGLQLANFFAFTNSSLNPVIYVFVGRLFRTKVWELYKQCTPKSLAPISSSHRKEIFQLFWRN
Protocol: The agonistic or antagonistic action of substances can be quantified on the bradykinin receptor 1 (B1R) of the species human and rat using ectopically expressing cell lines (CHO K1 cells) and with the aid of a Ca^2+-sensitive dye (Fluo-4) using a fluorescent imaging plate reader (FLIPR). The indication in % activation is based on the Ca^2+ signal after addition of Lys-Des-Arg^9-bradykinin (0.5 nM) or Des-Arg^9-bradykinin (100 nM). Antagonists lead to suppression of the Ca^2+ influx after the addition of the agonist. % Inhibition compared with the maximum achievable inhibition is indicated.
The agonistic or antagonistic action of substances can be determined on the bradykinin receptor 1 (B1R) of the species human and rat using the following assay. According to this assay, the increase in intracellular Ca^2+ following administration of a B1R agonist is quantified with the aid of a Ca^2+-sensitive dye (Fluo-4 type, Molecular Probes Europe BV, Leiden, Netherlands) using a Fluorescent Imaging Plate Reader (FLIPR, Molecular Devices, Sunnyvale, USA) and/or using a Novostar (BMG Labtech GmbH, Offenburg, Germany).
Chinese hamster ovary cells (CHO K1 cells) which have been stably transfected with the human B1R gene (hB1R cells) or with the B1R gene of the rat (rB1R cells) are used. For functional studies, the cells are plated out on black 96-well plates having a clear base (BD Biosciences, Heidelberg, Germany or Greiner, Frickenhausen, Germany) in a density of 20,000-35,000 cells/well. The cells are left overnight at 37° C. and with 5% CO2 in culture medium (hB1R cells: Nutrient Mixture Ham's F12, Gibco Invitrogen GmbH, Karlsruhe, Germany or DMEM, Sigma-Aldrich, Taufkirchen, Germany; rB1R cells: D-MEM/F12, Gibco Invitrogen GmbH, Karlsruhe, Germany), with 10 vol. % FBS (fetal bovine serum, Gibco Invitrogen GmbH, Karlsruhe, Germany or PAN Biotech GmbH, Aidenbach, Germany). On the following day, the cells are loaded for 60 minutes at 37° C. with 2.13 μM Fluo-4 (Molecular Probes Europe BV, Leiden, Netherlands) in HBSS buffer (Hank's buffered saline solution, Gibco Invitrogen GmbH, Karlsruhe, Germany) […] (Sigma-Aldrich, Taufkirchen, Germany) and 10 mM HEPES (Sigma-Aldrich, Taufkirchen, Germany). The plates are then washed twice with HBSS buffer, and HBSS buffer additionally containing 0.1% BSA (bovine serum albumin; Sigma-Aldrich, Taufkirchen, Germany), 5.6 mM glucose and 0.05% gelatin (Merck KGaA, Darmstadt, Germany) is added to the plates. After incubation for a further 20 minutes at room temperature, the plates are inserted into the FLIPR or Novostar for Ca^2+ measurement. Alternatively, washing is carried out with buffer A (15 mM HEPES, 80 mM NaCl, 5 mM KCl, 1.2 mM CaCl2, 0.7 mM MgSO4, 2 g/l glucose, 2.5 mM probenecid) followed by loading with buffer A with added 2.5 μM Fluo-4 and 0.025% Pluronic F127 (Sigma-Aldrich, Taufkirchen, Germany). The cells are then washed twice with buffer A and incubated for 30 minutes at room temperature with buffer A additionally containing 0.05% BSA and 0.05% gelatin and are then inserted into the FLIPR or Novostar for Ca^2+ measurement. The Ca^2+-dependent fluorescence is measured before and after the addition of substances (λex=488 nm, λem=540 nm). Quantification is carried out by measuring the highest fluorescence intensity (FC, fluorescence counts) over time.
The FLIPR protocol consists of 2 substance additions, which are pipetted in the FLIPR. In the case of measurements using the Novostar, only the second substance addition is pipetted in the device. Both devices measure the fluorescence intensity over time. Test substances (10 μM) are first pipetted onto the cells and the intracellular Ca^2+ increase is compared with the control (hB1R: Lys-Des-Arg^9-bradykinin>=50 nM; rB1R: Des-Arg^9-bradykinin>=1 μM). This gives the % activation, based on the Ca^2+ signal after addition of Lys-Des-Arg^9-bradykinin (>=50 nM) or Des-Arg^9-bradykinin (>=1 μM). […]

inhibition at 10 µM	SMILES
84%	Cc1cccc(C)c1C(=O)NC1CCOc2ccc(C(=O)N(C)C3CCN(c4ccncc4)CC3)cc21 (stereo not shown) [CC_H-71, 4-[(2,6-Dimethyl-benzoyl)amino]-N-methyl-N-(1-pyridin-4-yl-piperidin-4-yl)-3,4-dihydro-2H-chromene-6-carboxylic acid amide]
93%	CN(C(=O)c1ccc2c(c1)C(NC(=O)c1c(Cl)cccc1C(F)(F)F)CCO2)C1CCN(c2ccncc2)CC1 (stereo not shown) [CC_H-72, 4-[[2-Chloro-6-(trifluoromethyl)-benzoyl]amino]-N-methyl-N-(1-pyridin-4-yl-piperidin-4-yl)-3,4-dihydro-2H-chromene-6-carboxylic acid amide]
100%	CN(C(=O)c1ccc2c(c1)C(NC(=O)c1ccccc1Cl)CCC2)C1CCN(c2ccncc2)CC1 (stereo not shown) [CC_H-73, 8-[(2-Chloro-benzoyl)amino]-N-methyl-N-(1-pyridin-4-yl-piperidin-4-yl)-5,6,7,8-tetrahydro-naphthalene-2-carboxylic acid amide]
96%	O=C(NCCC1CCN(c2ccncc2)CC1)c1ccc2c(c1)C(NC(=O)c1cccc(Cl)c1Cl)CC2 (stereo not shown) [CC_H-74, 3-[(2,3-Dichloro-benzoyl)amino]-N-[2-(1-pyridin-4-yl-piperidin-4-yl)-ethyl]-2,3-dihydro-1H-indene-5-carboxylic acid amide]
99%	CN(C(=O)c1ccc2c(c1)C(NC(=O)c1ccccc1Cl)CC2)C1CCN(c2ccc3cnccc3c2)CC1 (stereo not shown) [CC_H-75, 3-[(2-Chloro-benzoyl)amino]-N-(1-isoquinolin-6-yl-piperidin-4-yl)-N-methyl-2,3-dihydro-1H-indene-5-carboxylic acid amide]
100%	CN(C(=O)c1ccc2c(c1)C(NC(=O)c1cc(F)ccc1Cl)CC2)C1CCN(c2ccc3cnccc3c2)CC1 (stereo not shown) [CC_H-76, 3-[(2-Chloro-5-fluoro-benzoyl)amino]-N-(1-isoquinolin-6-yl-piperidin-4-yl)-N-methyl-2,3-dihydro-1H-indene-5-carboxylic acid amide]
99%	CN(C(=O)c1ccc2c(c1)C(NC(=O)C1CCCCC1)CC2)C1CCN(c2ccc3cnccc3c2)CC1 (stereo not shown) [CC_H-77, 3-(Cyclohexanecarbonylamino)-N-(1-isoquinolin-6-yl-piperidin-4-yl)-N-methyl-2,3-dihydro-1H-indene-5-carboxylic acid amide]
100%	CN(C(=O)c1ccc2c(c1)C(NC(=O)CCC1CCCC1)CC2)C1CCN(c2ccc3cnccc3c2)CC1 (stereo not shown) [CC_H-78, 3-(3-Cyclopentyl-propanoylamino)-N-(1-isoquinolin-6-yl-piperidin-4-yl)-N-methyl-2,3-dihydro-1H-indene-5-carboxylic acid amide]
99%	CC(C)CC(=O)NC1CCc2ccc(C(=O)N(C)C3CCN(c4ccc5cnccc5c4)CC3)cc21 (stereo not shown) [CC_H-79, N-(1-Isoquinolin-6-yl-piperidin-4-yl)-N-methyl-3-(3-methyl-butanoylamino)-2,3-dihydro-1H-indene-5-carboxylic acid amide]
98%	CN(C(=O)c1ccc2c(c1)C(NC(=O)c1sccc1Cl)CC2)C1CCN(c2ccc3cnccc3c2)CC1 (stereo not shown) [CC_H-80, 3-Chloro-N-[6-[(1-isoquinolin-6-yl-piperidin-4-yl)-methyl-carbamoyl]-2,3-dihydro-1H-inden-1-yl]-thiophene-2-carboxylic acid amide]
100%	Cc1cc(N2CCC(N(C)C(=O)c3ccc4c(c3)C(N(C)C(=O)C3CCCCC3)CC4)CC2)cc(C)n1 (stereo not shown) [CC_H-81, 3-(Cyclohexanecarbonyl-methyl-amino)-N-[1-(2,6-dimethyl-pyridin-4-yl)-piperidin-4-yl]-N-methyl-2,3-dihydro-1H-indene-5-carboxylic acid amide]
100%	Cc1cc(N2CCC(N(C)C(=O)c3ccc4c(c3)C(N(C)C(=O)c3cc(F)ccc3Cl)CC4)CC2)cc(C)n1 (stereo not shown) [CC_H-82, 3-[(2-Chloro-5-fluoro-benzoyl)-methyl-amino]-N-[1-(2,6-dimethyl-pyridin-4-yl)-piperidin-4-yl]-N-methyl-2,3-dihydro-1H-indene-5-carboxylic acid amide]
100%	Cc1cc(N2CCC(N(C)C(=O)c3ccc4c(c3)C(N(C)C(=O)c3cccc(Cl)c3Cl)CC4)CC2)cc(C)n1 (stereo not shown) [CC_H-83, 3-[(2,3-Dichloro-benzoyl)-methyl-amino]-N-[1-(2,6-dimethyl-pyridin-4-yl)-piperidin-4-yl]-N-methyl-2,3-dihydro-1H-indene-5-carboxylic acid amide]
100%	Cc1cc(N2CCC(N(C)C(=O)c3ccc4c(c3)C(N(C)C(=O)CCC3CCCC3)CC4)CC2)cc(C)n1 (stereo not shown) [CC_H-84, 3-(3-Cyclopentyl-propanoyl-methyl-amino)-N-[1-(2,6-dimethyl-pyridin-4-yl)-piperidin-4-yl]-N-methyl-2,3-dihydro-1H-indene-5-carboxylic acid amide]
99%	Cc1cccc(C)c1C(=O)NC1CC(C)(C)c2ccc(C(=O)N(C)C3CCN(c4ccncc4)CC3)cc21 (stereo not shown) [CC_H-85, 3-[(2,6-Dimethyl-benzoyl)amino]-N,1,1-trimethyl-N-(1-pyridin-4-yl-piperidin-4-yl)-2,3-dihydro-indene-5-carboxylic acid amide]
95%	Cc1cc(N2CCC(N(C)C(=O)c3ccc4c(c3)C(N(C)C(=O)c3cnccc3C(F)(F)F)CC4)CC2)cc(C)n1 (stereo not shown) [CC_H-86, N-[6-[[1-(2,6-Dimethyl-pyridin-4-yl)-piperidin-4-yl]-methyl-carbamoyl]-2,3-dihydro-1H-inden-1-yl]-N-methyl-4-(trifluoromethyl)-pyridine-3-carboxylic acid amide]
100%	Cc1cc(N2CCC(N(C)C(=O)c3ccc4c(c3)C(N(C)C(=O)c3ccccc3Cl)CC4)CC2)cc(C)n1 (stereo not shown) [CC_H-87, 3-[(2-Chloro-benzoyl)-methyl-amino]-N-[1-(2,6-dimethyl-pyridin-4-yl)-piperidin-4-yl]-N-methyl-2,3-dihydro-1H-indene-5-carboxylic acid amide]
100%	Cc1cc(N2CCC(N(C)C(=O)c3ccc4c(c3)C(N(C)C(=O)c3sccc3Cl)CC4)CC2)cc(C)n1 (stereo not shown) [CC_H-88, 3-Chloro-N-[6-[[1-(2,6-dimethyl-pyridin-4-yl)-piperidin-4-yl]-methyl-carbamoyl]-2,3-dihydro-1H-inden-1-yl]-N-methyl-thiophene-2-carboxylic acid amide]
100%	CN(C(=O)c1ccc2c(c1)C(NS(=O)(=O)Cc1ccccc1C(F)(F)F)CC2(C)C)C1CCN(c2ccncc2)CC1 (stereo not shown) [CC_H-89, N,1,1-Trimethyl-N-(1-pyridin-4-yl-piperidin-4-yl)-3-[[[2-(trifluoromethyl)-phenyl]-methylsulfonyl]amino]-2,3-dihydro-indene-5-carboxylic acid amide]
